# Measured values from PubChem BioAssay (NCI).
#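 Exposure lasted 48 hours, with cells grown in 96-well plates and compounds tested at five concentrations. Here, GI50 denotes the concentration required for 50% inhibition of growth. The concentration for full growth arrest is given as TGI.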
# Assays:
# Assay in all cases: NCI anticancer screen, dose series, 48 h
# HS 578T breast = tested on: HS 578T breast
# CAKI-1 renal = tested on: CAKI-1 renal
# SK-MEL-2 melanoma = tested on: SK-MEL-2 melanoma
# HT29 colon = tested on: HT29 colon
# UACC-62 melanoma = tested on: UACC-62 melanoma
# PC-3 prostate = tested on: PC-3 prostate
# UO-31 renal = tested on: UO-31 renal
# DU-145 prostate = tested on: DU-145 prostate
# NCI-H226 lung = tested on: NCI-H226 lung
# LOX IMVI melanoma = tested on: LOX IMVI melanoma
# OVCAR-8 ovarian = tested on: OVCAR-8 ovarian
# MCF7 breast = tested on: MCF7 breast
# ACHN renal = tested on: ACHN renal
# SK-OV-3 ovarian = tested on: SK-OV-3 ovarian
# HCC-2998 colon = tested on: HCC-2998 colon
# HCT-116 colon = tested on: HCT-116 colon
# T-47D breast = tested on: T-47D breast
# NCI/ADR-RES ovarian = tested on: NCI/ADR-RES ovarian
# HL-60(TB) leukemia = tested on: HL-60(TB) leukemia
# CCRF-CEM leukemia = tested on: CCRF-CEM leukemia
# SW-620 colon = tested on: SW-620 colon
# MOLT-4 leukemia = tested on: MOLT-4 leukemia
# SR leukemia = tested on: SR leukemia
# U251 CNS = tested on: U251 CNS
# RPMI-8226 leukemia = tested on: RPMI-8226 leukemia
# NCI-H460 lung = tested on: NCI-H460 lung
# MDA-MB-435 = tested on: MDA-MB-435
# COLO 205 colon = tested on: COLO 205 colon
# SF-539 CNS = tested on: SF-539 CNS
# 786-0 renal = tested on: 786-0 renal
# HOP-62 NSCLC = tested on: HOP-62 NSCLC
# SNB-19 CNS = tested on: SNB-19 CNS
# KM12 colon = tested on: KM12 colon
# RXF 393 renal = tested on: RXF 393 renal
# MALME-3M melanoma = tested on: MALME-3M melanoma
# SK-MEL-5 melanoma = tested on: SK-MEL-5 melanoma
# OVCAR-4 ovarian = tested on: OVCAR-4 ovarian
# K-562 leukemia = tested on: K-562 leukemia
# SNB-75 CNS = tested on: SNB-75 CNS
# NCI-H23 lung = tested on: NCI-H23 lung
# SF-295 CNS = tested on: SF-295 CNS
# HCT-15 colon = tested on: HCT-15 colon
# OVCAR-3 ovarian = tested on: OVCAR-3 ovarian
# TK-10 renal = tested on: TK-10 renal
# A498 renal = tested on: A498 renal
# OVCAR-5 ovarian = tested on: OVCAR-5 ovarian
# IGROV1 ovarian = tested on: IGROV1 ovarian
# UACC-257 melanoma = tested on: UACC-257 melanoma
# MDA-MB-231 breast = tested on: MDA-MB-231 breast
# SN12C renal = tested on: SN12C renal
# SF-268 CNS = tested on: SF-268 CNS
# HOP-92 NSCLC = tested on: HOP-92 NSCLC
# A549 NSCLC = tested on: A549 NSCLC
# SK-MEL-28 melanoma = tested on: SK-MEL-28 melanoma
# M14 melanoma = tested on: M14 melanoma
# NCI-H522 lung = tested on: NCI-H522 lung
# BT-549 breast = tested on: BT-549 breast
compound,measurement,setting,value
COc1ccccc1-c1c(C)nn2c(NCc3ccccn3)cc(C)nc12,GI50,HS 578T breast,> 44.7 µM
same,TGI,HS 578T breast,> 50 µM
same,GI50,CAKI-1 renal,12.4 µM
same,TGI,CAKI-1 renal,> 50 µM
same,GI50,SK-MEL-2 melanoma,> 50 µM
same,TGI,SK-MEL-2 melanoma,> 50 µM
same,GI50,HT29 colon,7.31 µM
same,TGI,HT29 colon,> 50 µM
same,GI50,UACC-62 melanoma,16.9 µM
same,TGI,UACC-62 melanoma,> 50 µM
same,GI50,PC-3 prostate,30.6 µM
same,TGI,PC-3 prostate,> 50 µM
same,GI50,UO-31 renal,10.2 µM
same,TGI,UO-31 renal,> 50 µM
same,GI50,DU-145 prostate,> 40.2 µM
same,TGI,DU-145 prostate,> 50 µM
same,GI50,NCI-H226 lung,40.3 µM
same,TGI,NCI-H226 lung,> 50 µM
same,GI50,LOX IMVI melanoma,29.8 µM
same,TGI,LOX IMVI melanoma,> 50 µM
same,GI50,OVCAR-8 ovarian,23.9 µM
same,TGI,OVCAR-8 ovarian,> 50 µM
same,GI50,MCF7 breast,2.92 µM
same,TGI,MCF7 breast,> 50 µM
same,GI50,ACHN renal,3.51 µM
same,TGI,ACHN renal,> 50 µM
same,GI50,SK-OV-3 ovarian,> 50 µM
same,TGI,SK-OV-3 ovarian,> 50 µM
same,GI50,HCC-2998 colon,> 50 µM
same,TGI,HCC-2998 colon,> 50 µM
same,GI50,HCT-116 colon,3.75 µM
same,TGI,HCT-116 colon,> 50 µM
same,GI50,T-47D breast,1.04 µM
same,TGI,T-47D breast,> 50 µM
same,GI50,NCI/ADR-RES ovarian,24.5 µM
same,TGI,NCI/ADR-RES ovarian,> 50 µM
same,GI50,HL-60(TB) leukemia,20.4 µM
same,TGI,HL-60(TB) leukemia,> 50 µM
same,GI50,CCRF-CEM leukemia,6.89 µM
same,TGI,CCRF-CEM leukemia,> 50 µM
same,GI50,SW-620 colon,14.9 µM
same,TGI,SW-620 colon,> 50 µM
same,GI50,MOLT-4 leukemia,7.68 µM
same,TGI,MOLT-4 leukemia,> 50 µM
same,GI50,SR leukemia,17 µM
same,TGI,SR leukemia,> 50 µM
same,GI50,U251 CNS,> 41.9 µM
same,TGI,U251 CNS,> 50 µM
same,GI50,RPMI-8226 leukemia,13.6 µM
same,TGI,RPMI-8226 leukemia,> 50 µM
same,GI50,NCI-H460 lung,27.1 µM
same,TGI,NCI-H460 lung,> 50 µM
same,GI50,MDA-MB-435,23 µM
same,TGI,MDA-MB-435,> 50 µM
same,GI50,COLO 205 colon,1.92 µM
same,TGI,COLO 205 colon,> 50 µM
same,GI50,SF-539 CNS,44.3 µM
same,TGI,SF-539 CNS,> 50 µM
same,GI50,786-0 renal,36.4 µM
same,TGI,786-0 renal,> 50 µM
same,GI50,HOP-62 NSCLC,34.7 µM
same,TGI,HOP-62 NSCLC,> 50 µM
same,GI50,SNB-19 CNS,> 50 µM
same,TGI,SNB-19 CNS,> 50 µM
same,GI50,KM12 colon,> 46.6 µM
same,TGI,KM12 colon,> 50 µM
same,GI50,RXF 393 renal,33.5 µM
same,TGI,RXF 393 renal,> 50 µM
same,GI50,MALME-3M melanoma,> 17.1 µM
same,TGI,MALME-3M melanoma,> 50 µM
same,GI50,SK-MEL-5 melanoma,14.8 µM
same,TGI,SK-MEL-5 melanoma,49.6 µM
same,GI50,OVCAR-4 ovarian,2.32 µM
same,TGI,OVCAR-4 ovarian,> 50 µM
same,GI50,K-562 leukemia,5.85 µM
same,TGI,K-562 leukemia,> 50 µM
same,GI50,SNB-75 CNS,> 50 µM
same,TGI,SNB-75 CNS,> 50 µM
same,GI50,NCI-H23 lung,48.7 µM
same,TGI,NCI-H23 lung,> 50 µM
same,GI50,SF-295 CNS,21.2 µM
same,TGI,SF-295 CNS,> 50 µM
same,GI50,HCT-15 colon,9.76 µM
same,TGI,HCT-15 colon,> 50 µM
same,GI50,OVCAR-3 ovarian,2.58 µM
same,TGI,OVCAR-3 ovarian,> 50 µM
same,GI50,TK-10 renal,> 25.6 µM
same,TGI,TK-10 renal,> 50 µM
same,GI50,A498 renal,3.84 µM
same,TGI,A498 renal,> 50 µM
same,GI50,OVCAR-5 ovarian,> 50 µM
same,TGI,OVCAR-5 ovarian,> 50 µM
same,GI50,IGROV1 ovarian,> 37.5 µM
same,TGI,IGROV1 ovarian,> 50 µM
same,GI50,UACC-257 melanoma,11.2 µM
same,TGI,UACC-257 melanoma,> 50 µM
same,GI50,MDA-MB-231 breast,34.7 µM
same,TGI,MDA-MB-231 breast,> 50 µM
same,GI50,SN12C renal,29.9 µM
same,TGI,SN12C renal,> 50 µM
same,GI50,SF-268 CNS,34.8 µM
same,TGI,SF-268 CNS,> 50 µM
same,GI50,HOP-92 NSCLC,15.9 µM
same,TGI,HOP-92 NSCLC,> 50 µM
same,GI50,A549 NSCLC,26.7 µM
same,TGI,A549 NSCLC,> 50 µM
same,GI50,SK-MEL-28 melanoma,> 36.9 µM
same,TGI,SK-MEL-28 melanoma,> 50 µM
same,GI50,M14 melanoma,24.7 µM
same,TGI,M14 melanoma,> 50 µM
same,GI50,NCI-H522 lung,21.3 µM
same,TGI,NCI-H522 lung,> 50 µM
same,GI50,BT-549 breast,> 37.3 µM
same,TGI,BT-549 breast,> 50 µM
